Experimental data: US11471462B2, “Compositions and methods for detecting and treating diabetes” (THE BROAD INSTITUTE, INC., priority 2016, dated 2022)

Test system: SLC16A11
Assay: Compound treatment, SLC16A11 expression by ddPCR in SNU761 cells
Assay type: cell-based, human
Conditions: SNU761 cells; same doses and treatment times as in the LINCS dataset
Experimental: A small number of the compounds that made the strongest positive connections to the SLC16A11 gene expression signature were selected and tested. […] Methotrexate was also included, which had been annotated as a dihydrofolate reductase inhibitor. SNU761 cells (derived from a human hepatocellular carcinoma) and NCIH716 cells (derived from a human cecum adenocarcinoma), which both express SLC16A11, were treated with the compounds. The same compound concentrations and treatment times were used as in the LINCS dataset experiments. […] For normalization, a different housekeeper gene, HPRT1, was used and obtained similar results with the mTOR inhibitors (FIGS. 14A and 14B).
From the total list of compounds, 59 readily available compounds were selected from the 79 compounds with the largest connectivity scores to the query signature and 20 middle compounds with connectivity scores centered on 0 (FIG. 15A) and then treated SNU761 cells at the same doses and treatment times as were used in the LINCS dataset. It was expected that the top compounds would be enriched for compounds that increased SLC16A11 expression. […] The results were aligned with the expectations (FIG. 15B). Hierarchical clustering of the SLC16 expression profiles generated by the compound treatments are shown by the heat map in FIG. 15C.
SNU761 (human hepatocellular carcinoma) and NCIH716 (human cecum adenocarcinoma) were cultured in RPMI Medium 1640 supplemented with 10% Fetal Bovine Serum (FBS), 100 μg/ml Streptomycin and 100 U/ml Penicillin. Cells were grown in a humidified CO2 incubator, at 37° C.
For the unbiased approach taken to investigate the compounds that connected to the SLC16A11 gene expression signature, compounds were obtained from compound management at the Broad Institute.
SNU761 and NCIH716 cells were plated into 96 well plates at a density of 20,000 cells per well. Hepatocytes were plated into collagen coated 96 well plates (Corning, 354408) at a density of 50,000 cells per well. After 24 hours, cells were treated with compounds at a final concentration of 10 μM or vehicle control for the appropriate amount of time.
At the time of collection, cells in 96 well plates were lysed by directly adding 50 μL of RLT buffer (Qiagen). 75 μL of AMPure XP beads, diluted by a factor of 5 in polyethylene glycol, were then added to bind nucleic acids. One wash with polyethylene glycol was then performed. DNase treatment (Qiagen) was carried out according to the manufacturer's protocol in a final volume of 50 μL. 100 μL of polyethylene glycol was added after the DNase treatment to crowd nucleic acids back onto the beads. Two washes with 80% ethanol were performed and residual ethanol was removed. RNA was then eluted in water.
RNA was DNase treated and converted into cDNA using the High-Capacity RNA-to-cDNA kit (Thermo Fisher Scientific). The following FAM-labeled TaqMan Real-Time PCR assays (Thermo Fisher Scientific) were used to quantify gene expression: SLC16A11 (Hs00601062_g1), SLC16A13 (Hs00416832_m1), SLC16A1 (Hs01560299_m1). The VIC-labeled TaqMan Real-Time assays TBP (Hs00427620_m1) or HPRT1 (Hs02800695_m1) were used for normalization. Droplets were generated and analyzed using a QX200 Droplet Generator and Reader system (BioRad). Data was extracted using QuantaSoft (BioRad) and analyzed using Microsoft Excel.

Row | SMILES | avg_fc (SLC16A11 expression, compound treated vs DMSO treated cells)
1 | O=C(NOC[C@H](O)CO)c1ccc(F)c(F)c1Nc1ccc(I)cc1F [PD-0325901] | 2.181
2 | COc1ccc2ccc(=O)oc2c1 [herniarin] | 0.9563
3 | COc1cc2nccc(Oc3ccc(NC(=O)Nc4cc(C)on4)c(Cl)c3)c2cc1OC [tivozanib] | 1.647
4 | O=c1cc(N2CCOCC2)oc2c1ccc1ccccc12 [NU-7026] | 1.12
5 | NS(=O)(=O)c1cc2c(cc1C(F)(F)F)NC(Cc1ccccc1)NS2(=O)=O (centres unmarked) [bendroflumethiazide] | 0.7917
6 | Cc1cc([C@@H](C)Nc2ccccc2C(=O)O)c2nc(N3CCOCC3)cc(=O)n2c1 [AZD-6482] | 2.176
7 | N#CC(C#N)=C(N)/C(C#N)=C/c1ccc(O)cc1 [tyrphostin-AG-112] | 0.7594
8 | Cc1cnc(NC(=O)C2=C(O)c3ccccc3S(=O)(=O)N2C)s1 [meloxicam] | 0.9414
9 | COc1ccccc1OCC(O)CN1CCN(CC(=O)Nc2c(C)cccc2C)CC1 (centres unmarked) [ranolazine] | 0.7654
10 | c1nc2nc(Nc3ccc(N4CCOCC4)cc3)nc(NC3CCCCC3)c2[nH]1 [reversine] | 3.235
11 | C[C@@H]1C[C@@H]([C@H](O)CC2CC(=O)NC(=O)C2)C(=O)[C@@H](C)C1 [cycloheximide] | 1.243
12 | Nc1ccc(-c2ccc3ncc4ccc(=O)n(-c5cccc(C(F)(F)F)c5)c4c3c2)cn1 [torin-2] | 2.843
13 | COc1cc(Nc2ncc(F)c(Nc3ccc4c(n3)N(COP(=O)(O)O)C(=O)C(C)(C)O4)n2)cc(OC)c1OC [fostamatinib] | 3.274
14 | OC1CCC(Nc2ncc3nc(Nc4c(F)cc(F)cc4F)n([C@@H]4CCOC4)c3n2)CC1 (some centres unmarked) [CG-930] | 1.337
15 | CN1CCN(C2=Nc3cc(Cl)ccc3Nc3ccccc32)CC1 [clozapine] | 0.9466
16 | CC[C@@H]1C(=O)OC[C@@H]1Cc1cncn1C [pilocarpine] | 0.7379
17 | CS(=O)(=O)N1CCN(Cc2cc3nc(-c4cccc5[nH]ncc45)nc(N4CCOCC4)c3s2)CC1 [GDC-0941] | 2.079
18 | Cn1cc(C(=O)C(=O)NC2CN3CCC2CC3)c2ccccc21 (centres unmarked) [RS-56812] | 0.9914
19 | O=C(NC[C@H](O)CO)c1ccncc1Nc1ccc(I)cc1F [AS-703026] | 1.68
20 | O=C(NOCC1CC1)c1ccc(F)c(F)c1Nc1ccc(I)cc1Cl [PD-184352] | 1.445
21 | CCC(=O)N1CCN(c2ccc(-n3c(=O)ccc4cnc5ccc(-c6cnc7ccccc7c6)cc5c43)cc2C(F)(F)F)CC1 [torin-1] | 2.84
22 | COc1cccc(-c2cc(=O)c3ccccc3o2)c1N [PD-98059] | 0.7929

Row | SMILES | avg_fc (SLC16A11 expression, compound treated vs DMSO treated cells)
23 | COC(=O)c1c(-c2cc(OC)c(OC)c(OC)c2)c2ccnc(OCc3ncccn3)c2c(=O)n1Cc1ccnc(C)c1 [T-0156] | 0.8378
24 | COc1cccc2cc(-c3nc([C@H]4CC[C@H](C(=O)O)CC4)n4ncnc(N)c34)[nH]c12 [OSI-027, trans-4-[4-amino-5-(7 methoxy-1H-indol-2-yl)imidazo[5,1-f][1,2,4]triazin-7-yl]-cyclohexanecarboxylic acid, reference compound] | 3.384
25 | Cn1cnc2c(F)c(Nc3ccc(Br)cc3Cl)c(C(=O)NOCCO)cc21 [selumetinib] | 1.964
26 | CNC(=O)Nc1ccc(-c2nc(N3CC4CCC(C3)O4)c3cnn(C4CCC5(CC4)OCCO5)c3n2)cc1 [WYE-125132] | 3.336
27 | NC(=O)c1ccc(N(C(N)=O)c2c(F)cccc2F)nc1-c1ccc(F)cc1F [VX-702] | 0.8683
28 | Cc1[nH]c(/C=C2\C(=O)Nc3ccc(S(=O)(=O)N(C)c4cccc(Cl)c4)cc32)c(C)c1C(=O)N1CCN(C)CC1 [SU-11274] | 1.059
29 | Nc1ccc(-c2cccc3c(=O)cc(N4CCOCC4)oc23)cc1 [PI-828] | 1.336
30 | COCC(=O)NC/C=C/c1ccc2ncnc(Nc3ccc(Oc4ccc(C)nc4)c(C)c3)c2c1 [CP-724714] | 1.37
31 | O=C1NC(=O)/C(=C/c2ccc3c(c2)OC(F)(F)O3)S1 [AS-604850] | 1.009
32 | O=C1CC[C@@]2(O)[C@H]3Cc4ccc(O)c5c4[C@@]2(CCN3CC2CC2)[C@H]1O5 [naltrexone] | 1.183
33 | COC(=O)Nc1ccc(-c2nc(N3CCOCC3)c3cnn(C4CCN(C(=O)OC)CC4)c3n2)cc1 [WYE-354, methyl 4-[6-[4-(methoxycarbonylamino)phenyl]-4-morpholin-4-ylpyrazolo[3,4-d]pyrimidin-1-yl]piperidine-1-carboxylate, reference compound] | 3.517
34 | O=C(NC(COc1ccc2[nH]c(=O)[nH]c2c1)c1ccccc1)c1cccn(Cc2ccc(F)c(F)c2)c1=O (centres unmarked) [KIN001-244] | 1.084
35 | COCCCOc1cc(C[C@@H](C[C@H](N)[C@@H](O)C[C@H](C(=O)NCC(C)(C)C(N)=O)C(C)C)C(C)C)ccc1OC [aliskiren] | 0.8853
36 | O=C1N(c2ccccc2)c2ccccc2C1(Cc1ccncc1)Cc1ccncc1 [linopirdine] | 0.8629
37 | C[C@H]1O[C@@H](O[C@H]2[C@@H](O)C[C@H](O[C@H]3[C@@H](O)C[C@H](O[C@H]4CC[C@@]5(C)[C@H](CC[C@@H]6[C@@H]5CC[C@]5(C)[C@@H](C7=CC(=O)OC7)CC[C@]65O)C4)O[C@@H]3C)O[C@@H]2C)C[C@H](O)[C@@H]1O [digitoxin] | 1.375
38 | Cc1cn(-c2cc(C(=O)Nc3ccc(C)c(NC(=O)c4ccno4)c3)cc(C(F)(F)F)c2)cn1 [ALW-II-38-3] | 0.9734
39 | Clc1ccc(COC(Cn2ccnc2)c2ccc(Cl)cc2Cl)cc1 (centres unmarked) [econazole] | 1.178
40 | Cc1cccc(CCN2CCC(C(=O)c3ccc(NS(C)(=O)=O)cc3)CC2)n1 [E-4031] | 0.9411
41 | COc1ccc(-c2cc(=O)c3c(OC)c(OC)c(OC)c(OC)c3o2)cc1OC [nobiletin] | 1.129
42 | Oc1cccc(-c2nc(N3CCOCC3)c3oc4ncccc4c3n2)c1 [PI-103, 3-(6-morpholin-4-yl-8-oxa-3,5,10-triazatricyclo[7.4.0.0^2,7]trideca-1 (9),2(7),3,5,10,12-hexaen-4-yl)phenol, reference compound] | 2.453
43 | NC1(c2ccc(-c3nc4ccn5c(=O)[nH]nc5c4cc3-c3ccccc3)cc2)CCC1 [MK-2206] | 0.6972
44 | C[C@H](NC(=O)Cc1cc(F)cc(F)c1)C(=O)N[C@H](C(=O)OC(C)(C)C)c1ccccc1 [DAPT-GSI-IX] | 1.286
